Assay results taken from US20230331604A1, “METHOD FOR THE ELECTROCHEMICAL CONTROL OF THE PHOTOSYNTHETIC METABOLISM OF PURPLE NON-SULFUR BACTERIA AND REDOX MEDIATORS THEREOF” (Zuccato HC S.r.l., priority 2020, published 2023).

Assays:
[1] = equilibrium potential of the redox mediator; assay type: physicochemical; settings: vs SCE reference electrode
Description: This is enabled by the use of suitable fat-soluble redox mediators ([2], [3]) capable of permeabilizing the bacterial membrane and entering the cytoplasm, in order to alter the oxidation state of the disulfide bond present in type A thioredoxins, as well as by appropriate light irradiation.

[2] = test system: Rhodobacter sphaeroides (ATCC 55304); experiment: bacteriochlorophyll synthesized by Rhodobacter sphaeroides under electrochemical control vs aerobic growth (absorption spectra); assay type: cell-based; settings: 50 nM safranin, acetone/methanol extract, absorbance normalized to 660 nm
Description: A homemade potentiostat was used as an external source of free energy, capable of providing a current of up to 100 mA and keeping the potential constant within the range of −2 V÷+2 V).
The materials of the electrodes used are: • Working electrode: stainless steel grid with 1 mm mesh spacing. • Counter electrode: graphite bars (0.8 cm in diameter, 30 cm long) • Reference electrode: (SCE)
Safranin T, molecular mass equal to 350.85. (Fluka) at a concentration equal to 50 nM, was used as redox mediator in the cell.
The solution inside the fermenter/reactor was kept under mild stirring to facilitate the recirculation of the redox mediator molecules.

Cc1cc2nc3cc(C)c(N)cc3[n+](-c3ccccc3)c2cc1N.[Cl-] [Safranin T, safranin T]
equilibrium potential [1]: about −540 mV | intensity of bacteriochlorophyll absorption bands compared to the corresponding aerobic population [2]: almost tripled
